According to patent US20200123147A1, “THIAZOLE COMPOUNDS USEFUL AS PRMT5 INHIBITORS” (Bayer Aktiengesellschaft, priority 2017, published 2020):

Target: T1, PRMT5:MEP50 protein complex (Homo sapiens, UniProt O14744)
T1 construct: FLAG (N); made in house; host or cells: Hi5 insect cells
Experiment: In vitro assay 1: PRMT5 SPA assay ("EAA")
Type: biochemical
Settings: scintillation proximity assay, methylation of biotinylated H4(1-24) peptide, 3H-SAM, 60 min at 22° C.
Description: In Vitro Assay 1: PRMT5 SPA Assay (“EAA”)
PRMT5 inhibitory activities of the compounds described in the present invention were quantified using a scintillation proximity assay (SPA) which measures methylation by the enzyme of a synthetic, biotinylated peptide corresponding to the N-terminal sequence of Histone H4 (a.a. 1-24). The peptide of sequence […]-K(Btn)-amide is commercially available (e.g. from Biosyntan) and will be herein referred to as H4(1-24). The PRMT5:MEP50 protein complex used in the assay was produced in house following standard protocols. Briefly, full length PRMT5 and MEP50 constructs respectively tagged with N-terminal FLAG and 6× His sequences were co-expressed in Hi5 insect cells, and the recombinant protein complex was purified by FLAG affinity and size exclusion chromatography.
In a typical assay 11 different concentrations of each compound (0.1 nM, 0.33 nM, 1.1 nM, 3.8 nM, 13 nM, 44 nM, 0.15 μM, 0.51 μM, 1.7 μM, 5.9 μM and 20 μM) were tested in duplicate within the same microtiter plate. To this end, 100-fold concentrated compound solutions (in DMSO) were previously prepared by serial dilution (1:3.4) of 2 mM stocks in a clear low volume 384-well source microtiter plate (Greiner Bio-One), from which 50 nl of compounds were transferred into a white low volume test microtiter plate from the same supplier. Subsequently, 2.5 μL PRMT5 in aqueous assay buffer [20 mM Bicine pH 8.0 (Alfa Aesar), 7.5 mM Tris(2-carboxyethyl) phosphine hydrochloride (TCEP, Sigma), 0.1% (w/v) bovine gamma globuline (BGG, Sigma), 0.002% (v/v) Tween-20 (Sigma)] were added to the compounds in the test plate to a final enzyme concentration of—typically—7.5 nM (this parameter was adjusted depending on the activity of the enzyme lot in order to be within the linear dynamic range of the assay). The samples were then incubated for 15 min at 22° C. to allow pre-equilibration of the putative enzyme-inhibitor complexes before the start of the methylation reaction, which was initiated by the addition of 2.5 μL 2-fold concentrated solution (in assay buffer) of “cold” S-Adenosyl-L-Methionine (SAM, Sigma, final concentration: 0.5 μM), tritiated 3H-SAM (Perkin Elmer, final concentration: 0.5 μM) and H4(1-24) peptide substrate (final concentration: 0.06 μM). The resulting mixture (5 μL final volume) was shortly centrifuged (2 min., 1500 rpm) and incubated at 22° C. during 60 min. Thereupon the reaction was stopped by adding 3 μL of Streptavidin PS SPA imaging beads (Perkin Elmer, final concentration of 0.375 μg/μL) and “cold” SAM (AK Scientific, 250 μM final concentration) for non-specific binding reduction. Plates containing the stopped reaction were sealed with transparent adhesive foil (Perkin Elmer), centrifuged (2 min., 1500 rpm), and further incubated either 1 h at 22° C. or overnight at 4° C. in order to allow the SPA signals to develop. Subsequently, the amount of product was evaluated by measuring the energy transfer from the β-particles emitted by the 3H-labeled substrate to the Europium scintillator co-polymerized in the polystyrene matrix of the PS imaging beads, using the standard settings for this purpose of a Viewlux (Perkin-Elmer) CCD plate imaging device (emission filter 613/55 (IFP).
The resulting scintillation counts were taken as indicator for the amount of methylated peptide per well. The data were normalised using two sets of control wells (typically 16 each) for high—(=enzyme reaction with DMSO instead of test compound=0%=minimum inhibition) and low—(=all assay components without enzyme=100%=maximum inhibition) PRMT5 activity. IC50 values were calculated by fitting the normalized inhibition data to a 4-parameter logistic equation using the “Screener” analysis software from Genedata.

T1 sequence (O14744 whole entry, species assumed): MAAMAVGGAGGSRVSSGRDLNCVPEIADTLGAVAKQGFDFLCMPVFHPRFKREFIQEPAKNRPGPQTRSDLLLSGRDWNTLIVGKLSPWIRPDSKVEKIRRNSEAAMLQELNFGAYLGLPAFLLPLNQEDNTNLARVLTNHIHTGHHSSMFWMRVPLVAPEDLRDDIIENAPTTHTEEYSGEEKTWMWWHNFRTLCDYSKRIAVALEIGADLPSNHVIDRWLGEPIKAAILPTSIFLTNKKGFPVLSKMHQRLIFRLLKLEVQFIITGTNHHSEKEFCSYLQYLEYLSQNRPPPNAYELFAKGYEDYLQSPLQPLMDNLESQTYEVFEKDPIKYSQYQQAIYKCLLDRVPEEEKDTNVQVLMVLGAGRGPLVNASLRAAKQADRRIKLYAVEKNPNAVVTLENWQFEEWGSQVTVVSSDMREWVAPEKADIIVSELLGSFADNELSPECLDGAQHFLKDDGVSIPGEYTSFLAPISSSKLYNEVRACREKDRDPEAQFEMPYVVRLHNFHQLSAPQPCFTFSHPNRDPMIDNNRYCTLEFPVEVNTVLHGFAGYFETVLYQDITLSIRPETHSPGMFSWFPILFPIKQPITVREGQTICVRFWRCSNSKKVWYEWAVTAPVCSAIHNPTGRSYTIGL
T1 sequence (Q9BQA1 whole entry partner, species assumed): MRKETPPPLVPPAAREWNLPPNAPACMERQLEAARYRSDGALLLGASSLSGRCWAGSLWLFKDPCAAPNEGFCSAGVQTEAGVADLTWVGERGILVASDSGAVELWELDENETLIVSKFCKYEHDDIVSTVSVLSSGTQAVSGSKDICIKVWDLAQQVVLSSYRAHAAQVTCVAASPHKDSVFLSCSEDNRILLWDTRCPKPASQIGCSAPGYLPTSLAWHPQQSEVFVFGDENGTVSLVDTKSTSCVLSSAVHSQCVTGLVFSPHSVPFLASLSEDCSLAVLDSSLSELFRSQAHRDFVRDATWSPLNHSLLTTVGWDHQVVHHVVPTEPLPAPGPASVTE

SMILES	IC50 [nM]
O=C(Nc1ccn(CCO)n1)c1csc(Nc2ccccc2)n1 [Example 28, N-[1-(2-Hydroxyethyl)-1H-pyrazol-3-yl]-2-(phenylamino)-1,3-thiazole-4-carboxamide]	9100
CC(C)(C)c1cc(NC(=O)c2csc(Nc3ccc(F)nc3)n2)no1 [Example 53, N-(5-tert-Butyl-1,2-oxazol-3-yl)-2-[(6-fluoropyridin-3-yl)amino]-1,3-thiazole-4-carboxamide]	15200
O=C(Nc1cnn(C2COC2)c1)c1csc(Nc2ccc(Cl)cc2)n1 [Example 31, 2-[(4-Chlorophenyl)amino]-N-[1-(oxetan-3-yl)-1H-pyrazol-4-yl]-1,3-thiazole-4-carboxamide]	15100
CC(C)(C)c1cc(NC(=O)c2csc(Nc3cccc(F)c3F)n2)no1 [Example 52, N-(5-tert-Butyl-1,2-oxazol-3-yl)-2-[(2,3-difluorophenyl)amino]-1,3-thiazole-4-carboxamide]	12300
CC(C)(C)c1cc(NC(=O)c2csc(NCC3CCCO3)n2)no1 (racemic) [Example 49, (rac)-N-(5-tert-Butyl-1,2-oxazol-3-yl)-2-{[-tetrahydrofuran-2-ylmethyl]amino}-1,3-thiazole-4-carboxamide]	5680
O=C(NCCCN1CCc2ccccc2C1)c1csc(Nc2ccc(Cl)cc2)n1 [Example 26, 2-[(4-Chlorophenyl)amino]-N-[3-(3,4-dihydroisoquinolin-2(1H)-yl)propyl]-1,3-thiazole-4-carboxamide]	7850
N#Cc1c[nH]nc1NC(=O)c1csc(Nc2ccccc2)n1 [Example 30, N-(4-Cyano-1H-pyrazol-3-yl)-2-(phenylamino)-1,3-thiazole-4-carboxamide]	12000
CC(C)(C)c1cc(NC(=O)c2csc(Nc3cccc(Cl)c3)n2)no1 [Example 48, N-(5-tert-Butyl-1,2-oxazol-3-yl)-2-[(3-chlorophenyl)amino]-1,3-thiazole-4-carboxamide]	2990
Cc1c(NC(=O)c2csc(Nc3ccc(Cl)cc3)n2)noc1C(C)(C)C [Example 29, N-(5-tert-Butyl-4-methyl-1,2-oxazol-3-yl)-2-[(4-chlorophenyl)amino]-1,3-thiazole-4-carboxamide]	9680
Cc1cc(F)ccc1Nc1nc(C(=O)Nc2cc(C(C)(C)C)on2)cs1 [Example 50, N-(5-tert-Butyl-1,2-oxazol-3-yl)-2-[(4-fluoro-2-methylphenyl)amino]-1,3-thiazole-4-carboxamide]	6710
C#Cc1cccc(Nc2nc(C(=O)Nc3cc(C(C)(C)C)on3)cs2)c1 [Example 51, N-(5-tert-Butyl-1,2-oxazol-3-yl)-2-[(3-ethynylphenyl)amino]-1,3-thiazole-4-carboxamide]	10500
CC(C)(C)c1cc(NC(=O)c2csc(NC3CC3)n2)no1 [Example 32, N-(5-tert-Butyl-1,2-oxazol-3-yl)-2-(cyclopropylamino)-1,3-thiazole-4-carboxamide]	14700
CC(C)(C)c1cc(NC(=O)c2csc(Nc3ccccc3F)n2)no1 [Example 25, N-(5-tert-Butyl-1,2-oxazol-3-yl)-2-[(2-fluorophenyl)amino]-1,3-thiazole-4-carboxamide]	2490

Compounds with a lower IC50, results first:

IC50 [nM]	SMILES
438	CC(C)(C)c1cc(NC(=O)c2csc(Nc3ccccc3)n2)n[nH]1 [Example 16, N-(5-tert-Butyl-1H-pyrazol-3-yl)-2-(phenylamino)-1,3-thiazole-4-carboxamide]
160	CC(C)(C)c1cc(NC(=O)c2csc(Nc3ccc4c(c3)CCC4)n2)no1 [Example 38, N-(5-tert-Butyl-1,2-oxazol-3-yl)-2-(2,3-dihydro-1H-inden-5-ylamino)-1,3-thiazole-4-carboxamide]
606	CC(C)(C)c1cc(NC(=O)c2csc(NCc3ccco3)n2)no1 [Example 44, N-(5-tert-Butyl-1,2-oxazol-3-yl)-2-[(furan-2-ylmethyl)amino]-1,3-thiazole-4-carboxamide]
239	COc1ccc2[nH]c(NC(=O)c3csc(Nc4ccc(Cl)cc4)n3)nc2c1 [Example 9, 2-[(4-Chlorophenyl)amino]-N-(5-methoxy-1H-benzimidazol-2-yl)-1,3-thiazole-4-carboxamide]
280	O=C(Nc1nccs1)c1csc(Nc2ccc(Cl)cc2)n1 [Example 11, 2-[(4-Chlorophenyl)amino]-N-(1,3-thiazol-2-yl)-1,3-thiazole-4-carboxamide]
1200	CC(C)(C)c1cc(NC(=O)c2csc(Nc3ccc(F)c(Cl)c3)n2)no1 [Example 46, N-(5-tert-Butyl-1,2-oxazol-3-yl)-2-[(3-chloro-4-fluorophenyl)amino]-1,3-thiazole-4-carboxamide]
41.8	Cc1ccc(Nc2nc(C(=O)Nc3cc(C(C)(C)C)on3)cs2)nc1 [Example 34, N-(5-tert-Butyl-1,2-oxazol-3-yl)-2-[(5-methylpyridin-2-yl)amino]-1,3-thiazole-4-carboxamide]
512	Cc1cccc(Nc2nc(C(=O)Nc3cc(C(C)(C)C)on3)cs2)c1 [Example 43, N-(5-tert-Butyl-1,2-oxazol-3-yl)-2-[(3-methylphenyl)amino]-1,3-thiazole-4-carboxamide]
426	Cc1ccc(Nc2nc(C(=O)Nc3cc(C(C)(C)C)on3)cs2)c(F)c1 [Example 41, N-(5-tert-Butyl-1,2-oxazol-3-yl)-2-[(2-fluoro-4-methylphenyl)amino]-1,3-thiazole-4-carboxamide]
49.6	CC(C)(C)c1cc(NC(=O)c2csc(Nc3ccc(Cl)cn3)n2)no1 [Example 35, N-(5-tert-Butyl-1,2-oxazol-3-yl)-2-[(5-chloropyridin-2-yl)amino]-1,3-thiazole-4-carboxamide]
1300	CC(C)(C)c1cc(NC(=O)c2csc(Nc3ccccc3C(=O)Nc3cc4ccccc4cn3)n2)no1 [Example 47, N-(5-tert-Butyl-1,2-oxazol-3-yl)-2-{[2-(isoquinolin-3-ylcarbamoyl)phenyl]amino}-1,3-thiazole-4-carboxamide]
118	CC(C)(C)c1cc(NC(=O)c2csc(Nc3ccc(F)cn3)n2)no1 [Example 6, N-(5-tert-Butyl-1,2-oxazol-3-yl)-2-[(5-fluoropyridin-2-yl)amino]-1,3-thiazole-4-carboxamide]
508	CC(C)(C)c1cc(NC(=O)c2csc(NCc3cccc(F)c3)n2)no1 [Example 42, N-(5-tert-Butyl-1,2-oxazol-3-yl)-2-[(3-fluorobenzyl)amino]-1,3-thiazole-4-carboxamide]
119	CC(C)(C)c1cc(NC(=O)c2csc(NCCc3ccccc3)n2)no1 [Example 37, N-(5-tert-Butyl-1,2-oxazol-3-yl)-2-[(2-phenylethyl)amino]-1,3-thiazole-4-carboxamide]
183	CC(C)(C)c1cc(NC(=O)c2csc(Nc3ccc(Cl)c(F)c3)n2)no1 [Example 39, N-(5-tert-Butyl-1,2-oxazol-3-yl)-2-[(4-chloro-3-fluorophenyl)amino]-1,3-thiazole-4-carboxamide]
105	CC(C)(C)c1cc(NC(=O)c2csc(Nc3cc(Cl)ccn3)n2)no1 [Example 36, N-(5-tert-Butyl-1,2-oxazol-3-yl)-2-[(4-chloropyridin-2-yl)amino]-1,3-thiazole-4-carboxamide]
350	CC(C)(C)c1cc(NC(=O)c2csc(Nc3ccc4ccoc4c3)n2)no1 [Example 40, 2-(1-Benzofuran-6-ylamino)-N-(5-tert-butyl-1,2-oxazol-3-yl)-1,3-thiazole-4-carboxamide]
815	CC(C)(C)c1cc(NC(=O)c2csc(Nc3ccc(F)c(F)c3)n2)no1 [Example 45, N-(5-tert-Butyl-1,2-oxazol-3-yl)-2-[(3,4-difluorophenyl)amino]-1,3-thiazole-4-carboxamide]
